# Experiments:
# [1] = Radical oxidation of linoleic acid by AAPH (conjugated diene, TBARS); details: for Formed TBARS / Formed conjugated diene: 37° C., AAPH; for Conjugated diene formation: (%) / TBARS formation: (%): versus system with no cyclotetrasaccharide
# Text: As a negative control, a system of PBS with no cyclotetrasaccharide was provided and measured similarly as above. Conjugated diene was quantified by measuring the absorbance of test samples at a wavelength of 234 nm according to the method by Okamura et al., in Journal of Agricultural and Food Chemistry, Vol. 42, page 1,612 (1994). TABRS was quantified by allowing the sampled test specimens to react with thiobarbituric acid and measured for absorbance of the reaction mixture at a wavelength of 532 nm according to the method by Ohgawara et al., in Journal of Lipid Research, Vol. 19, page 1,053 (1978). The quantification of the formed TBARS in test samples was determined with a calibration curve provided in such a manner of diluting 1,1,3,3-tetraethoxypropane with ethanol into 10, 50 and 100 μg/ml dilutes, allowing the dilutes with thiobarbituric acid similarly as the test samples, measuring the absorbance of the resulting mixtures similarly as above, and drawing calibration curve based on the measured absorbances and the amount of TBARS calculated theoretically. The quantification of the formed conjugated diene in the test samples was determined by calculating the absorbances of the samples obtained in this experiment, based on the molar absorbance coefficient of molecules disclosed in Journal of Agricultural and Food Chemistry, Vol. 42, page 1,612 (1994). Tables 4 and 5 show the results on measurement for the formation level of conjugated diene and TBARS, respectively.
# [2] = Preservation of vitamin D3 tablets at 60° C., absorbance at 265 nm; assay type: physicochemical; details: after preserving for 14 days
# [3] = Inhibition of hydroxy radical formation (H2O2/iron sulfate, DMPO spin trap, ESR); details: for Amount of formed hydroxy radical: ESR peak ratio to Mn2+ standard, relative value; for Hydroxy radical formation (%): versus system with no saccharide
# Protocol: Each of the resulting mixtures was mixed to initiate reaction, injected into a cell for measuring electron spin resonance spectrum (ESR), set to a detector, and measured for formation level of hydroxy radical at a prescribed period of time after initiating reaction. […] For measurement of ESR, “Free Radical Monitor JES-FR30” was used, and the formation level of hydroxy radical was determined by calculating a ratio of a peak level detected first after initiating the measurement among the characteristic signal peaks characteristic of 5,5-dimethyl-1-pyrroline-oxide-OH (hydroxy radical), used as a spin trapping agent, and a peak level of Mn^2+ of an external standard installed in the apparatus of “JES-FR30”, and expressed as relative values in Table 1.
# maltase = experiment: Maltase activity of rat small intestinal mucosal enzyme solution after AAPH oxidation; assay type: biochemical
# Protocol: One milliliter of the above rat small intestinal mucosal enzyme solution, one milliliter of a 100 mM AAPH solution, one milliliter of a 50 mM phosphate buffer (pH 7.2), and one milliliter of a 400 mM of the crystalline cyclotetrasaccharide pentahydrate prepared in Experiment 1-1 were mixed, incubated at 37° C. for two hours, and measured for the activities of sucrase and maltase. […] To a half milliliter of a maltose solution, which had been prepared by dissolving maltose in 50 mM sodium maleate (pH 6.6) to give a concentration of one percent (%), 0.05 ml of a AAPH-rat small intestinal mucosal enzyme solution. After incubated at 37° C. for 30 min, the mixture was quantified for free glucose by the GOD method. One unit (U) activity of maltase was defined as an enzyme amount that releases two micromoles of glucose per minutes from maltose at 37° C.
# [4] = reaction time 6 hr, listed as cyclotetrasaccharide
smiles,measurement,setting,value
"OCC1OC2OCC3O[C@H](O[C@H]4C(O)C(CO)OC(OCC5O[C@H](O[C@@H](C1O)C2O)C(O)C(O)[C@@H]5O)C4O)C(O)C(O)[C@@H]3O (stereo partly drawn) [Cyclotetrasaccharide, cyclo{→6}-α-D-glucopyranosyl-(1→3)-α-D-glucopyranosyl-(1→6)-α-D-glucopyranosyl-(1→3)-α-D-glucopyranosyl-(1→}]",Formed TBARS,[1]; reaction time 0 hr,0.00 μg/g-linoleic acid
same,Formed conjugated diene,[1]; reaction time 0 hr,0.27 μg/g-linoleic acid
same,Conjugated diene formation: (%),[1]; reaction time 0 hr,(100) %
same,Formed TBARS,[1]; reaction time 1 hr,1.52 μg/g-linoleic acid
same,Formed conjugated diene,[1]; reaction time 1 hr,5.16 μg/g-linoleic acid
same,Conjugated diene formation: (%),[1]; reaction time 1 hr,(55) %
same,TBARS formation: (%),[1]; reaction time 1 hr,(55) %
same,Formed TBARS,[1]; reaction time 2 hr,3.55 μg/g-linoleic acid
same,Formed conjugated diene,[1]; reaction time 2 hr,9.15 μg/g-linoleic acid
same,Conjugated diene formation: (%),[1]; reaction time 2 hr,(51) %
same,TBARS formation: (%),[1]; reaction time 2 hr,(35) %
same,Formed TBARS,[1]; reaction time 6 hr,7.97 μg/g-linoleic acid
same,Formed conjugated diene,[1]; reaction time 6 hr,23.83 μg/g-linoleic acid
same,Conjugated diene formation: (%),[1]; reaction time 6 hr,(40) %
same,TBARS formation: (%),"[1]; reaction time 6 hr, listed as Cyclotetra-saccharide",(30) %
same,Conjugated diene formation: (%),[1]; [4],about 40%
same,TBARS formation: (%),[1]; [4],about 30%
same,residual vitamin D3 (%),[2],61%
same,Amount of formed hydroxy radical,[3]; 15 mM saccharide,1.009
same,Hydroxy radical formation (%),[3]; 15 mM saccharide,(34) %
same,Hydroxy radical formation (%),"[3]; 15 mM saccharide, listed as cyclotetrasaccharide",about 34%
same,Amount of formed hydroxy radical,[3]; 38 mM saccharide,0.265
same,Hydroxy radical formation (%),[3]; 38 mM saccharide,(9) %
same,Hydroxy radical formation (%),"[3]; 38 mM saccharide, listed as cyclotetrasaccharide",about 9%
same,Amount of formed hydroxy radical,[3]; 75 mM saccharide,0.228
same,Hydroxy radical formation (%),[3]; 75 mM saccharide,(8) %
same,Amount of formed hydroxy radical,[3]; 150 mM saccharide,0.125
same,Hydroxy radical formation (%),[3]; 150 mM saccharide,(4) %
same,Maltase activity,"maltase; enzyme solution incubated with AAPH at 37° C. for two hours, with or without cyclotetrasaccharide",0.0669 u/mg-protein
same,Maltase Relative residual activity (%),"maltase; versus system with no AAPH, 37° C., two hours",(85) %
